Reference: patent US6121241A, “Anticoagulant peptide aldehyde derivatives” (Gyogyszerkutato Intezet Kft., priority 1996, dated 2000)
pIC50: −log10 of the molar value. Read-outs that look alike come from different tables or passages of the source.

Experiments:
[1] = system: citrate plasma coagulation (PT); assay: Prothrombin time (PT) plasma clotting test; type: biochemical
Protocol: (§1) Anticoagutant activity (i.e. inhibition of the proteolytic reactions in the process) is measured by anticoagulant tests, e.g. by the thrombin time (TT), activated partial thromboplastin time (APTT) and prothrombin time (PT) tests [E. J. W. Bovie et al; Mayo Clinic Laboratory Manual of Hemostasis; W. B. Sanuders Co., Philadelphia (1971)]. Plasma, inhibited in spontaneous coagulation, e.g. citrate-plasma, is made to coagulate and the required coagulation time is measured. Upon the action of anticoagulants the coagulation time is prolonged proportionally to the inhibition of the reaction(s) in the process. The anticoagulant effect can be characterized by the substance concentration required to double the coagulation time compared to the control (IC50). The effect of anticoagulants on individual coagulant proteases is measured by the amidolytic method [R. Lottenberg et al., Methods in Enzymol. 80, 341 (1981); G. Cleason, Blood Coagulation and Fibrinolysis 5, 411 (1994)]. The isolated active factor (e.g. thrombin, fXa) and its chromogen or fluorogen peptide-amide substrate are reacted in the presence or absence of the inhibitor, resp. The enzyme inhibiting action is characterized by the inhibitory constant (IC50) measured during amidolysis.
In the TT test coagulation is initiated by the thrombin added to the citrate plasma. In the system 22 pmol/mL of thrombin is functioning and in the presence of plasma components its inhibition can be measured on the fibrinogen (one of the natural substrates of thrombin) present In the APTT and PT tests the full coagulation process is made to proceed. Depending on the activator fX is activated by the extrinsic or intrinsic pathway. The generated fXa activates prothrombin to thrombin which, in turn, triggers plasma coagulation. In the test the coagulation time is prolonged if the enzymes or one of them is inhibited by the inhibitor. In the APTT and PT tests at most 40 pmole/ml Xa is generated (this is the full amount of factor X present in both systems) while 150 pmole/ml (APTT) and 350 pmole/ml (PT) are generated from thrombin [B Kaiser et al., Thromb. Res. 65, 157 (1992)].
The in vitro anticoagulant effect of the compounds of general formula (I) was measured by the prothrombin time (PT), activated partial thromboplastin time (APTT) and thrombin time (TT) tests [D. Bagdy et at., Thromb. Haemost. 67, 325 (1992)]. The Xa-factor-inhibiting effect of the compounds was also determined by using the Bz-Ile-Glu-Gly-Arg-pNA chromogen substrate (see method M6).

[2] = system: activated partial thromboplastin time (APTT); assay: Ex vivo APTT in citrate plasma of rabbits after p.o. dosing; design: species or system New Zealand white rabbits; conditions: p.o. 5 mg/kg
Protocol: (§2) The anticoagulant and platelet aggregation inhibiting effect of the compounds of general formula (I) was studied In New Zealand white rabbits ex vivo according to D. Bagdy et al [Thromb. Haemost 67. 357 (1992). The compounds were dissolved in buffered isotonic saline solution and administered i.v. (0,04-5.0 mg/kg) or by infusion (0.25-5.0 mg/kg/h) or subcutaneously (0.5-6.0 mg/kg) or p.o. (2.5-20 mg/kg). The effect of the compounds was detectable already within 30 minutes following p.o. administration, peak values were attained after 60-180 minutes and the therapeutic level was maintained dose-dependently for 3→6 hours.
(§3) The in vivo effect of D-cHga Pro-Arg-H (1) is presented in detail in Tables 5 and 6. The corresponding values of C1 are listed as controls. The compound was administered p.o. in doses of 5 mg/kg. The blood samples drawn from the caudal vein in every 30-60 minutes were analyzed. The whole blood clotting time (WBCT) and the inhibition of thrombin-induced blood platelet aggregation (PAI) were determined. The activated partial thromboplastin time (APTT) and the thrombin time (TT) in the citrate plasma obtained from the blood sample were also measured. The APTT and TT values are compiled in Table 5 and the WBCT and PAI values in Table 6.

[3] = system: thrombin time (TT); assay: Ex vivo TT in citrate plasma of rabbits after p.o. dosing; design: species or system New Zealand white rabbits; conditions: p.o. 5 mg/kg
Protocol: as §2, §3

[4] = biological target: T1, thrombin (Homo sapiens, UniProt P00734); assay: Inhibition of the amidolytic effect of thrombin on Tos-Gly-Pro-Arg-pNA; type: biochemical; conditions: Tos-Gly-Pro-Arg-pNA substrate
T1 construct: The isolated active factor (e.g. thrombin, fXa) and its chromogen or fluorogen peptide-amide substrate are reacted
Protocol: as §1
In the case of D-MePhe-Pro-Arg-H (C1) the concentration doubling the clotting time in the TT, APTT and PT tests amounted to 87, 622 and 2915 nM, resp.

[5] = Table 2, concentration doubling clotting time, read-out: A: IC50, PT

SMILES	pIC50 [1, 5]	APTT relative clotting time ([2]; 0 min)	APTT relative clotting time ([2]; 30 min)	APTT relative clotting time ([2]; 45 min)	APTT relative clotting time ([2]; 60 min)	APTT relative clotting time ([2]; 90 min)	APTT relative clotting time ([2]; 120 min)	APTT relative clotting time ([2]; 180 min)	APTT relative clotting time ([2]; 240 min)	APTT relative clotting time ([2]; 300 min)	TT relative clotting time ([3]; 0 min)	TT relative clotting time ([3]; 30 min)	TT relative clotting time ([3]; 45 min)	TT relative clotting time ([3]; 60 min)	TT relative clotting time ([3]; 90 min)	TT relative clotting time ([3]; 120 min)	TT relative clotting time ([3]; 180 min)	TT relative clotting time ([3]; 240 min)	further results
N=C(N)NCCC[C@@H](C=O)NC(=O)[C@H]1CCCN1C(=O)C(O)C1CCCCCC1.N=C(N)NCCC[C@@H](C=O)NC(=O)[C@H]1CCCN1C(=O)C(O)C1CCCCCC1.O=S(=O)(O)O (stereo partly drawn) [Compound 1, D-2-Cycloheptyl-2-hydroxyacetyl-L-prolyl-L-arginine aldehyde hemisulfate]	5.92	1.0	2.01 ± 0.43	2.25 ± 0.43	2.32 ± 0.43	2.11 ± 0.31	1.84 ± 0.11	1.66 ± 0.10	1.37 ± 0.08	1.31 ± 0.09	1.0	10.57 ± 5.98	10.89 ± 5.89	11.67 ± 5.69	14.00 ± 6.48	10.60 ± 4.22	2.22 ± 0.71	1.23 ± 0.07	TT relative clotting time ([3]; 300 min): 1.13 ± 0.05
CN[C@H](Cc1ccccc1)C(=O)N1CCC[C@H]1C(=O)N[C@H](C=O)CCCNC(=N)N [Compound C1, D-MePhe-Pro-Arg-H]	5.53	1.0	1.27 ± 0.38	1.30 ± 0.02	1.37 ± 0.03	1.45 ± 0.09	1.43 ± 0.11	1.39 ± 0.09	1.31 ± 0.11	1.25 ± 0.22	1.0	1.52 ± 0.17	2.50 ± 0.44	4.75 ± 1.38	10.50 ± 5.49	5.51 ± 3.59	2.05 ± 0.38	1.81 ± 0.39	pIC50 ([1]; read-out: concentration doubling the clotting time in the PT test): 5.54; pIC50 [4]: 8.70
